Assay [1] has as its system PC-3 prostatic adenocarcinoma cells. Nature of the assay: Tumor cytotoxicity assay, resazurin fluorescence, 48 h (Example 6). Format: cell-based, human. The note with it: read-out: EC50 (nM) PC-3. The method, then: 10× concentrated serial dilutions of the two compounds were prepared in appropriate culture medium for final concentrations ranging from 2.0×10^−5 M to 2.0×10^−10 M. Ten μl volumes of the 10× serial dilutions were added to the test wells in triplicate and the plates returned to the incubator for 48 hours.
Following 48 hours of drug exposure 10 μl of 0.2 mg/ml resazurin (obtained from Sigma-Aldrich Chemical Co.) in Mg^2+, Ca^2+ free PBS was added to each well and the plates were returned to the incubator for 3-4 hours. […] Resazurin dye without cells was used to determine the background, which was subtracted from the data for all experimental wells. The data were analyzed using Prism software (GraphPad Software).
PC-3, a human prostate adenocarcinoma, was maintained in F12K complete medium (F12K medium supplemented with 10% FBS; 2 mM Glutamine; 1% HEPES; and Pen/Strep at 100 IU/ml and 100 µg/ml, respectively).
A general note: Alamar Blue is a resazurin reagent that responds to reducing activity.

In assay [2] the test system is HL-60/MX-2 (Mitoxantrone-Resistant). The assay is described as follows: Drug resistant cell line pair, cytotoxicity (Example 10B). Format: cell-based, human. The note with it: Homo sapiens, HL60/MX2; HL-60 Resistant (HL-60/MX-2). The text has this:
2) Human Acute Promyelocytic Leukemia Cell Line Pair: HL-60 (Mitoxantrone-Sensitive) and HL-60/MX-2 (Mitoxantrone-Resistant)

Assay [3] relates to Jurkat cells (human T cell leukemia line). Nature of the assay: DNA fragmentation (DNA laddering). The format is cell-based. The text has this:
A late stage characteristic of apoptosis is internucleosomal DNA cleavage that results in a distinctive ladder pattern that can be visualized by gel electrophoresis.

Assay [4] addresses panel of 60 different kinases. Nature of the assay: Broad kinase screen, primary screen. Format: biochemical. The note with it: 10 μM compound, ATP 10 μM, 60 kinases.
Assay [5] has as its system DU-145 human prostate tumor. Nature of the assay: DU-145 Human Prostate Tumor Xenograft Model. Format: in vivo, nude mice. The note with it: KPU-2 plus taxotere, treatment Days 20-27. On the technique in general: Xenograft models place foreign cells or tissue in a host animal.
Method: Animals used were (exceptions are indicated for individual studies): female nude mice (nu/nu) between 5 and 6 weeks of age (˜20 g, Harlan); group size was 9-10 mice per group unless otherwise indicated.
Selected novel compounds were administered as monotherapy via the intraperitoneal (i.p.) route at the doses indicated for the individual study; for the combination studies the selected reference chemotherapy agents were injected 15-30 min prior to the compound.
Saline dilutions are used to achieve the injection concentrations used for the reference compounds.
When the tumors reached 5 mm×5 mm (at about 13-17 days) the animals were matched into treatment and control groups.
In this model unless otherwise noted for the individual study, test compounds were administered via the intraperitoneal route on Days 1, 3, 5, 8 and 11 (q3dx5); taxotere was administered intravenously on Days 1, 3 and 5 (q2dx3).
For a further assay, the system named is MCF-7 human breast tumor. The assay is described as follows: MCF-7 Human Breast Tumor Xenograft Model. Format: in vivo, nude mice. As to conditions: in combination with taxotere. In short, it runs like this:
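Female nu/nu mice (~20 g, 5–6 wk) given 21-day estrogen pellets (0.25 mg) s.c. 24 h before s.c. MCF-7 tumor fragment implantation; 9–10 mice/group. Compounds dosed i.p. (qdx5 Days 1–5, or Days 1, 2, 3, 4, 7); taxotere i.v. (Days 1, 3, 5 or 1, 3, 7), given 15–30 min before compound in combinations.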

Assay [6] has as its system MDA-231 human breast tumor. Nature of the assay: MDA-231 Human Breast Tumor Orthotopic Xenograft Model (mammary fat pad). The note with it: KPU-2 7.5 mg/kg ip q3dx5 with paclitaxel 16 mg/kg ip qdx5, three weeks. Format: in vivo, nude mice. The protocol:
The animals used were: female nude mice (nu/ni) (MDA-231 study) or B6D2F1 (B16-F10 studies) mice between 5 and 6 weeks of age (˜20 g, Harlan); group size was 10 mice per group unless otherwise indicated.
The cell lines used were: MDA-MB-231 human breast tumor and B16-F10 murine melanoma cells.
NPI compounds were administered as monotherapy via the intraperitoneal route at the doses indicated for the individual study; for the combination studies the selected reference chemotherapy agents were injected 15-30 min prior to the NPI compound.
Female nude mice were injected in the mammary fat pad with 2×10^6 MDA-231 cells harvested from in vitro cell culture. When the tumor size reached 5 mm×5 mm (about 14-28 days) the animals were matched into treatment and control groups. The study then proceeded as described for the HT-29 model, using paclitaxel as the standard chemotherapy agent.
In this model unless otherwise noted for the individual study, the test compounds were administered via the intraperitoneal route on Days 1, 4, 8, 11 and 15 (q3dx5); paclitaxel was administered via the intraperitoneal route on Days 1-5 (qdx5).
This model involves the placement of the human tumor tissue into the mouse mammary fat pad, a surrogate of the natural environment. In this manner the possibility of a positive effect due to a specific action on the subcutaneous vascular bed is avoided.

The subject of a further assay is Aspergillus fumigatus. Nature of the assay: Antifungal susceptibility testing, broth dilution (MIC/MFC). The format is cell-based. The gist of the method: (§1)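 Tested against two isolates per species (one for C. glabrata). After MIC, fungicidal concentration determined by plating 0.1 μl from MIC and each higher concentration.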
For orientation: Dilution methods test growth across graded concentrations, often in twofold steps.

Another assay relates to Candida albicans. Described as above. Format: cell-based. The gist of the method:
as §1

The subject of the next assay is Candida glabrata. Described as above. Format: cell-based. As to conditions: Nakaseomyces glabratus. The gist of the method: as §1
In a further assay the test system is Trichophyton rubrum. The assay is described as above. The format is cell-based. The note with it: Trichophyton species. The gist of the method:
as §1

Assay [7] concerns bovine brain microtubule protein. Nature of the assay: Tubulin polymerization assay, turbidity (Example 21). Format: biochemical. The note with it: 5 μM in 1% DMSO. The method, then:
Polymerization of bovine brain microtubule protein (Cytoskeleton, Inc., Denver, Colo.) was monitored by an increase in turbidity at 37° C. in microtubule buffer (80 mM PIPES, pH 6.8, 1 mM MgCl2, 1 mM EGTA, 1 mM GTP, 10% glycerol). […] Turbidity was measured as an increase in optical density at 340 nm with a thermo-controlled spectrophotometer (model 680XR microplate Reader™, Bio-Rad Laboratories).

A further assay concerns the target c-RAF (human) (Homo sapiens, UniProt P04049). As to conditions: ATP 10 μM.
The target of another assay is JNK3 (rat) (Rattus norvegicus, UniProt P49187). As to conditions: ATP 10 μM.
In a further assay the target is CDK1/Cyclin B (human) (Homo sapiens, UniProt P06493). The assay is described as follows: biochemical.
Another assay concerns HuVEC. The assay is described as follows: Action on microtubule function, α-tubulin staining. As to conditions: 2 μM, thirty minutes exposure.

Where two headings read alike, the source gives them in different places. Some results are limits rather than exact numbers.

Broadly, the EC50 is the midpoint of the concentration-response curve. For orientation: IC50 means the concentration that inhibits the measured activity by half. Low readings indicate higher potency, high ones lower potency. Usually MIC stands for the lowest concentration found to suppress growth. Low readings indicate a more susceptible organism, high ones a less susceptible organism.

c-RAF (human), sequence (P04049 whole entry): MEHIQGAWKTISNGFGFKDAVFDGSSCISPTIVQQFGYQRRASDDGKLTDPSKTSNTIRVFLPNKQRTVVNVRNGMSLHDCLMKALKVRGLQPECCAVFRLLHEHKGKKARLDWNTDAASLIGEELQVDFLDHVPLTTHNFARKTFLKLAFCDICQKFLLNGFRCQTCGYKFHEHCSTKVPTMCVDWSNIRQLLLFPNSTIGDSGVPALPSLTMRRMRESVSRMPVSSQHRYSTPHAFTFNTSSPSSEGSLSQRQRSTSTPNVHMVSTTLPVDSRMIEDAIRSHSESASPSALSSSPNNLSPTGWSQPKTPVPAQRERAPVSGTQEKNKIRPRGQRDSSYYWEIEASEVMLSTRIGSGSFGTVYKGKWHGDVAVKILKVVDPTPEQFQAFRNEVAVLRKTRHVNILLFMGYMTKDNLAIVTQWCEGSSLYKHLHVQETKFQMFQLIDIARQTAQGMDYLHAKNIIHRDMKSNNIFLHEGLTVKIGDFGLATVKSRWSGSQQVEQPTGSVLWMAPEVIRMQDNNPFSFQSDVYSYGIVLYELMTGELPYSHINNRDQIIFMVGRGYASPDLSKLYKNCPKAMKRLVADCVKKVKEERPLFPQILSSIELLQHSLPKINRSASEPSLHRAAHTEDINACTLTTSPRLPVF
JNK3 (rat), sequence (P49187 whole entry): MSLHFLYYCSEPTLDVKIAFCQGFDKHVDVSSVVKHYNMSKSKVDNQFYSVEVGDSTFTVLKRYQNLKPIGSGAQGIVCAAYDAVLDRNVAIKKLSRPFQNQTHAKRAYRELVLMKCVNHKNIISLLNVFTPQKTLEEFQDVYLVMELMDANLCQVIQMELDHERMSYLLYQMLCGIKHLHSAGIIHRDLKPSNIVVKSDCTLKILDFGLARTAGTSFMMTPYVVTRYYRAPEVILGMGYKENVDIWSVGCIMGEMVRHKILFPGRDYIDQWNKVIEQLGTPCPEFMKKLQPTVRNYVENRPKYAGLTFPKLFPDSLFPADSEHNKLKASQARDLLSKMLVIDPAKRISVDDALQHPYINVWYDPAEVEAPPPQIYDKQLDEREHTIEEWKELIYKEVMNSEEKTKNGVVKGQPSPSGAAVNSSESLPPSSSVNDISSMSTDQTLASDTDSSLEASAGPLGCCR
CDK1/Cyclin B (human), sequence (P06493 whole entry): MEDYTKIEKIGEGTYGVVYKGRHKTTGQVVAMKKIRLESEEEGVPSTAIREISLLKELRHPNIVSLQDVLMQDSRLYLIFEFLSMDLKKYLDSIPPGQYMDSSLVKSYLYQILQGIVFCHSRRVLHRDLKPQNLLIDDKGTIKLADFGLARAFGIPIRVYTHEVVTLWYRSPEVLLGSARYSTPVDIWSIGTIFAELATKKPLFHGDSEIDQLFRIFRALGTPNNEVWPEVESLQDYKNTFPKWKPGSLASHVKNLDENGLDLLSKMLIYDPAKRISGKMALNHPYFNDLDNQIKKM
CDK1/Cyclin B (human), sequence (P14635 whole entry partner): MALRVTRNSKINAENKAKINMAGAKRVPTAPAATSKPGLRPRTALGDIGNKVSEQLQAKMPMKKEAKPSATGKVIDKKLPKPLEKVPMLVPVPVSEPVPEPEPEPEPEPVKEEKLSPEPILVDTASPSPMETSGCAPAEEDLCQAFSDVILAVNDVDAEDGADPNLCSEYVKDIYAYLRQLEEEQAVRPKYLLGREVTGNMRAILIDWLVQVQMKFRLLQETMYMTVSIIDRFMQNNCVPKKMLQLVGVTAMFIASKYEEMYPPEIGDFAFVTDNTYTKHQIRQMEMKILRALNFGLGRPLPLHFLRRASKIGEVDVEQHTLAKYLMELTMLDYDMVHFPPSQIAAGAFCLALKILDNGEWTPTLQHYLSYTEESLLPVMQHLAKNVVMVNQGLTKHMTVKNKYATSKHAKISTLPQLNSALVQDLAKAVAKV

In the case of `CC(C)(C)c1[nH]cnc1/C=c1\[nH]c(=O)/c(=C/c2ccccc2)[nH]c1=O` [KPU-2, tBu-dehydro-PLH], the 50% effective concentration (EC50) in assay [1] (Table 2) and in assay [1] (Table 3) was 1 nM each time. The IC50 in assay [2] was 0.00817 µM; at c-RAF (human), 8.9 µM; on JNK3 (rat) it was 6.8 µM; against CDK1/Cyclin B (human) it was 10.1 µM. Further, the “concentration inducing DNA laddering” value in assay [3] was 1 nM. Also, the “kinases inhibited in the primary screen” value in assay [4] is recorded as “Four kinases were inhibited by greater than 50%”. Further, the “apparent TGI” value in assay [5] was above 58%. Moreover, the “effect on estimated tumor growth” value in the assay with MCF-7 human breast tumor is “appeared to be the most effective”. For the same compound, the “inhibition of tumor growth” value in [6] was “significant inhibition of tumor growth”. Also, the MIC in the assay on Aspergillus fumigatus (A. fumigatus isolate #2) was above 16 µg/mL; against Aspergillus fumigatus (Aspergillus fumigatus) it was above 16 µg/mL; with Candida albicans (C. albicans 10231), above 32 µg/mL; in the assay with Candida albicans (Candida albicans), above 32 µg/mL; in the assay on Candida glabrata, above 32 µg/mL. The “antifungal potency compared with griseofulvin” value with Trichophyton rubrum was “equivalent in potency or in some cases more potent than griseofulvin”. For the same compound, in [7], the tubulin polymerization entry was “inhibit tubulin polymerization”. The “microtubule depolymerization in HuVEC cells” value in the assay with HuVEC is “induced microtubule depolymerization”.

The values are drawn from patent US8129527B2, “Analogs of dehydrophenylahistins and their therapeutic use” (Nereus Pharmacuticals, Inc., priority 2006, dated 2012).
